Test results taken from ChEMBL document CHEMBL1201862, “PubChem BioAssay data set” (2004).
Activity calls are given as the source filed them.

Legend:
[1] = THP-1 cell cytotoxicity, dose response, cytotoxicity control for non-replicating M. tuberculosis project (AID 489025); assay type: functional
[2] = biological target: G-protein coupled receptor 55 (Homo sapiens, UniProt Q9Y2T6); experiment: inhibition of LPI-stimulated GPR55 beta-arrestin translocation – imaging, U2OS, beta-arrestin-GFP, LPI agonist, primary screen (AID 2013); assay type: functional;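 further: antagonist potency measured as reduced agonist-driven arrestin aggregation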
G-protein coupled receptor 55, sequence (Q9Y2T6 whole entry): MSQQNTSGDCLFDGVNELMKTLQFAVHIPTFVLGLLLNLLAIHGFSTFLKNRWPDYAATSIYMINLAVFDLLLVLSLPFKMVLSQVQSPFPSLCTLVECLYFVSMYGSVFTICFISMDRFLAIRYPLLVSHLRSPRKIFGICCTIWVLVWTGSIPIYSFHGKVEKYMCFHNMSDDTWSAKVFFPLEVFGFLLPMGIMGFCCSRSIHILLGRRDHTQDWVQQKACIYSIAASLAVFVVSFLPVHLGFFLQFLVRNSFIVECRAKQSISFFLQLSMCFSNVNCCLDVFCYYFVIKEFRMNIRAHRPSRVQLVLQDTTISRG

[3] = HepG2 cell cytotoxicity, dose response, cytotoxicity control for non-replicating M. tuberculosis project (AID 489018); assay type: functional; details: Mycobacterium tuberculosis
[4] = biological target: T1, RNA-editing ligase 1, mitochondrial (Trypanosoma brucei brucei, UniProt P86926); experiment: inhibition of trypanosome RNA editing ligase – biochemical, fluorescence, Trypanosoma brucei, dose response (AID 1117295); assay type: functional
T1 sequence (P86926 whole entry): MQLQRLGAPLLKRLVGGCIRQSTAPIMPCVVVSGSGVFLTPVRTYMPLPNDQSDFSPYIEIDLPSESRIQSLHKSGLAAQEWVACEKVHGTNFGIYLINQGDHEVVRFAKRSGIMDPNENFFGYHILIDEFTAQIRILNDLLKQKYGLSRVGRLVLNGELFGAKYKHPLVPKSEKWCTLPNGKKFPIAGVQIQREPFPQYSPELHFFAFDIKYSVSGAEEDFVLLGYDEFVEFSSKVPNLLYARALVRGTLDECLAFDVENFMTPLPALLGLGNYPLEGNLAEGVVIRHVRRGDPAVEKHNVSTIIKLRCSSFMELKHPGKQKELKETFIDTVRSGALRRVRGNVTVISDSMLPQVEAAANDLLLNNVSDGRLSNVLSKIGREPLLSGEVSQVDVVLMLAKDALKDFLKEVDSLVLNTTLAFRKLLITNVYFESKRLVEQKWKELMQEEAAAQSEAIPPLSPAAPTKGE

[5] = biological target: T2, Orexin/Hypocretin receptor type 1 (Homo sapiens, UniProt O43613); experiment: Homogeneous Time Resolved Fluorescence (HTRF)-based cell-based high throughput dose response assay for antagonists of the orexin 1 receptor (OX1R; HCRTR1). [Related pubchem assays (depositor defined):AID434989, AID435008, AID463079, AID485270, AID492963, AID492964, AID492965, AID493232, AID504717, AID504718]; assay type: functional
T2 sequence (O43613 whole entry): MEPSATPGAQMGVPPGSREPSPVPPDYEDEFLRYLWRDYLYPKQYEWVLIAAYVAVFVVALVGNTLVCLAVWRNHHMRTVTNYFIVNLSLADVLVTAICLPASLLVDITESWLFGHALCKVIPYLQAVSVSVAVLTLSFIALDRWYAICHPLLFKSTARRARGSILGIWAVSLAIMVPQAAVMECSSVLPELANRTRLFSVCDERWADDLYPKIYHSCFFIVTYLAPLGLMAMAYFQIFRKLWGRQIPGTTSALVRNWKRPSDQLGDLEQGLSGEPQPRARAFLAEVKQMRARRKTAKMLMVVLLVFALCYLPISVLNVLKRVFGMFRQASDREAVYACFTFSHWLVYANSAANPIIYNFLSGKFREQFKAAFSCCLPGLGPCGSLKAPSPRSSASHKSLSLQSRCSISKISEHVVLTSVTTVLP

[6] = (§1) Counterscreen for antagonists of the orexin 1 receptor (OX1R; HCRTR1): Fluorescence-based cell-based high throughput dose response assay to identify antagonists of the parental CHO cell line. [Related pubchem assays (depositor defined):AID434989, AID435008, AID463079, AID485270, AID492963, AID492964, AID492965, AID493232, AID504699, AID504701]; assay type: functional
[7] = biological target: T2, Orexin/Hypocretin receptor type 1; experiment: Fluorescence-based cell-based high throughput dose response assay for antagonists of the orexin 1 receptor (OX1R; HCRTR1). [Related pubchem assays (depositor defined):AID434989, AID435008, AID463079, AID485270, AID492963, AID492964, AID492965, AID493232, AID504717, AID504718]; assay type: functional
[8] = cells; assay type: functional
[9] = test system: CHO-K1; experiment: as §1, with “Homogeneous time resolved fluorescence (HTRF)-based” for “Fluorescence-based”, “cell-based” for “cell-based high throughput”, “CHO-K1” for “CHO”; assay type: functional; details: Cricetulus griseus;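 further: potency for inhibition of ATP-stimulated IP1 production as antagonists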
[10] = biological target: SUMO-activating enzyme (Homo sapiens, UniProt Q9UBT2); experiment: blockers of UBC9-mediated SUMO conjugation – biochemical, AlphaScreen, SUMOylation inhibitor project, confirmation (AID 2018); assay type: functional
SUMO-activating enzyme, sequence (Q9UBE0 whole entry): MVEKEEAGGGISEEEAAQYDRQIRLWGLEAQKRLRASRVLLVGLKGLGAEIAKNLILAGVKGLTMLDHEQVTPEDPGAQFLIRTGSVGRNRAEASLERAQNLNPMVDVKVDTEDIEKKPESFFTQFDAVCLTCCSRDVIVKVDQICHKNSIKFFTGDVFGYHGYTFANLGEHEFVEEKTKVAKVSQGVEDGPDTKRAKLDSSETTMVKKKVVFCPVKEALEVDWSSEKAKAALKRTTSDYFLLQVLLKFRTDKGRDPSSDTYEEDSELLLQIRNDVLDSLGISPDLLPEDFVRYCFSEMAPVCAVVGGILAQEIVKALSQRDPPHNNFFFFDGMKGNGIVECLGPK
SUMO-activating enzyme, sequence (Q9UBT2 whole entry): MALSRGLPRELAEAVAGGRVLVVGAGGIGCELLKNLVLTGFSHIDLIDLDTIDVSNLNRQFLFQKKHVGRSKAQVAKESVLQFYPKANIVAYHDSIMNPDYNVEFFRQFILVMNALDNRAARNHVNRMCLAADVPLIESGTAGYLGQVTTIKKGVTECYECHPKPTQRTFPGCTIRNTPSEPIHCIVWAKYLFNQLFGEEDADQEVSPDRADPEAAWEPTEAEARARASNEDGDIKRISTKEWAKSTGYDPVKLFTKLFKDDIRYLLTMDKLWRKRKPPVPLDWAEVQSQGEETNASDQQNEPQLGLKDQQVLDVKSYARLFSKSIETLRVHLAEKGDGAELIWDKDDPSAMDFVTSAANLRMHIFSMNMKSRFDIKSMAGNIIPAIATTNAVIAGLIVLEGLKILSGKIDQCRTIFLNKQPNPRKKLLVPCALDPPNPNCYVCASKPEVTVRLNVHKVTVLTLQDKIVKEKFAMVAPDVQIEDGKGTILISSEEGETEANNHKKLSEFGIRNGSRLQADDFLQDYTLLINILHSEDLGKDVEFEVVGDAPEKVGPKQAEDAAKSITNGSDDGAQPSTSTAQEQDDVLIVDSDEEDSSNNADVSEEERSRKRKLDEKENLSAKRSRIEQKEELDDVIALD

[11] = luciferase reporter signal suppression in cells – H4 neuroglioma cells, luminescence, dose response (AID 1990); assay type: functional, cell-based
[12] = Luminescence Cell-Based Dose Response HTS to Identify Inhibitors of 5'UTR Stem-Loop Driven Prion Protein mRNA Translation in H4 Neuroglioblastoma Cells. [Related pubchem assays: 1827 (Project Summary), 1813 (Primary HTS)]; assay type: functional
[13] = alpha-synuclein stem-loop luciferase translation blockers – H4 neuroglioma cells, luminescence, confirmation (AID 1988); assay type: functional, cell-based
[14] = biological target: SUMO E1/E2 (Homo sapiens, UniProt P63279+Q9UBE0+Q9UBT2); experiment: SAR analysis of SUMOylation using HTRF in an in-Vitro dose response assay. [Related pubchem assays (depositor defined):AID2006, AID2011, AID2018, AID2069, AID2658]; assay type: functional
SUMO E1/E2, sequence (Q9UBE0 whole entry): as the sequence (Q9UBE0 whole entry) above
SUMO E1/E2, sequence (Q9UBT2 whole entry): as the sequence (Q9UBT2 whole entry) above
SUMO E1/E2, sequence (P63279 whole entry): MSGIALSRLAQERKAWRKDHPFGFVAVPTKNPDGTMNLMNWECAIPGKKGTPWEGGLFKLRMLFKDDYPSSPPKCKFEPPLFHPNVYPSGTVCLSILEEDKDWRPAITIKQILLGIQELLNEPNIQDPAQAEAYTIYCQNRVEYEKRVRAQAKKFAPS

[15] = Counterscreen for AddAB inhibitors: absorbance-based bacterial cell-based high throughput dose response assay for inhibitors of bacterial viability. [Related pubchem assays (depositor defined):AID435030, AID449728, AID449731, AID488942, AID488955, AID488956]; assay type: functional
[16] = biological target: T3, Exodeoxyribonuclease V (Escherichia coli (strain K12), UniProt P04993+P07648+P08394); experiment: RecBCD inhibition via phage-restricted bacterial growth – absorbance, V66 E. coli, mutant T4 phage, counter-screen for AddAB inhibitor project, dose response (AID 492957); assay type: functional, cell-based, Escherichia coli str. K-12 substr. MG1655
T3 sequence (P04993 whole entry): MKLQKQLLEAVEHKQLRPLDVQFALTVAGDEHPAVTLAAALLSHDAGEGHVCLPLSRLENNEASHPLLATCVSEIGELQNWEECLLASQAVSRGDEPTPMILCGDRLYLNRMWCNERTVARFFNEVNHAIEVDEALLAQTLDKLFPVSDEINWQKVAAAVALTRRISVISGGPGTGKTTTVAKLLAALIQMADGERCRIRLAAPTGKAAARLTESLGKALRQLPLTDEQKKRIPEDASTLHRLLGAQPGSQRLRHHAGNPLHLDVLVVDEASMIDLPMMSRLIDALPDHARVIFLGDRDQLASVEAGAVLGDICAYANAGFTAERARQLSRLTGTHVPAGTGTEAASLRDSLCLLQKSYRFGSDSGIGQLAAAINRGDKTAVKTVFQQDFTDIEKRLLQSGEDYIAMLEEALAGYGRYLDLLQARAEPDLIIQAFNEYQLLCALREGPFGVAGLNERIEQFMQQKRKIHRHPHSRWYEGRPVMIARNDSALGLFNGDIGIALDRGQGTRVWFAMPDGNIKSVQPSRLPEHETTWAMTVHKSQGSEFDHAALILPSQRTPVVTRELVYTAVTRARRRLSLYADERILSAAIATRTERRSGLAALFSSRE
T3 sequence (P07648 whole entry): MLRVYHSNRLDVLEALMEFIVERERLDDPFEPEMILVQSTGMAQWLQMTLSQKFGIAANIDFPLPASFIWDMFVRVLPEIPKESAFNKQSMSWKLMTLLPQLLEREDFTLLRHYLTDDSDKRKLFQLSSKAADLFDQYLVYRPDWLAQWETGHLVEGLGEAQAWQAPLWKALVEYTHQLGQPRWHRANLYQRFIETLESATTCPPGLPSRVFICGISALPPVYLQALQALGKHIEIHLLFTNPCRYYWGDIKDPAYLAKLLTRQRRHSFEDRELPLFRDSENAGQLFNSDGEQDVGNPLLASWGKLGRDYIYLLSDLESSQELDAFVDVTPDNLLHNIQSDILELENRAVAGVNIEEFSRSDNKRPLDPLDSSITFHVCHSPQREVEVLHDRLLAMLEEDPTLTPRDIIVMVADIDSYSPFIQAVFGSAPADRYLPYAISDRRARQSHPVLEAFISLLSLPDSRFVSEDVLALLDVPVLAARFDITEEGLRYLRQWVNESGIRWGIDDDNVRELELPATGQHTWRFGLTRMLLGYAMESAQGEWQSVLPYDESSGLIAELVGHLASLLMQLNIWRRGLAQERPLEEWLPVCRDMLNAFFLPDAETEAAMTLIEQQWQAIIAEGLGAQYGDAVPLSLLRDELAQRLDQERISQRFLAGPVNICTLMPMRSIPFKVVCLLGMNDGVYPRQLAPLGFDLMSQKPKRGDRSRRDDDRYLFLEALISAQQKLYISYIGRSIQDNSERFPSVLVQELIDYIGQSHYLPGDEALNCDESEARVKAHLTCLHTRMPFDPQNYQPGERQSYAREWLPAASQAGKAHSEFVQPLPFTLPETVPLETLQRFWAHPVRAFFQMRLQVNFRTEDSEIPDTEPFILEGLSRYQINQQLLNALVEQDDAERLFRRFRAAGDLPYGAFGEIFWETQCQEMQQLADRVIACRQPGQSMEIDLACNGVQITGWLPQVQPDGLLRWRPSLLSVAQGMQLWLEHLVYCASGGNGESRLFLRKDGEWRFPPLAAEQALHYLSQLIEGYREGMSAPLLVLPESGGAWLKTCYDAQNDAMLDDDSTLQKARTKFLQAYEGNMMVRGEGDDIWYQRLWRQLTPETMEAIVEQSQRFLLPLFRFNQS
T3 sequence (P08394 whole entry): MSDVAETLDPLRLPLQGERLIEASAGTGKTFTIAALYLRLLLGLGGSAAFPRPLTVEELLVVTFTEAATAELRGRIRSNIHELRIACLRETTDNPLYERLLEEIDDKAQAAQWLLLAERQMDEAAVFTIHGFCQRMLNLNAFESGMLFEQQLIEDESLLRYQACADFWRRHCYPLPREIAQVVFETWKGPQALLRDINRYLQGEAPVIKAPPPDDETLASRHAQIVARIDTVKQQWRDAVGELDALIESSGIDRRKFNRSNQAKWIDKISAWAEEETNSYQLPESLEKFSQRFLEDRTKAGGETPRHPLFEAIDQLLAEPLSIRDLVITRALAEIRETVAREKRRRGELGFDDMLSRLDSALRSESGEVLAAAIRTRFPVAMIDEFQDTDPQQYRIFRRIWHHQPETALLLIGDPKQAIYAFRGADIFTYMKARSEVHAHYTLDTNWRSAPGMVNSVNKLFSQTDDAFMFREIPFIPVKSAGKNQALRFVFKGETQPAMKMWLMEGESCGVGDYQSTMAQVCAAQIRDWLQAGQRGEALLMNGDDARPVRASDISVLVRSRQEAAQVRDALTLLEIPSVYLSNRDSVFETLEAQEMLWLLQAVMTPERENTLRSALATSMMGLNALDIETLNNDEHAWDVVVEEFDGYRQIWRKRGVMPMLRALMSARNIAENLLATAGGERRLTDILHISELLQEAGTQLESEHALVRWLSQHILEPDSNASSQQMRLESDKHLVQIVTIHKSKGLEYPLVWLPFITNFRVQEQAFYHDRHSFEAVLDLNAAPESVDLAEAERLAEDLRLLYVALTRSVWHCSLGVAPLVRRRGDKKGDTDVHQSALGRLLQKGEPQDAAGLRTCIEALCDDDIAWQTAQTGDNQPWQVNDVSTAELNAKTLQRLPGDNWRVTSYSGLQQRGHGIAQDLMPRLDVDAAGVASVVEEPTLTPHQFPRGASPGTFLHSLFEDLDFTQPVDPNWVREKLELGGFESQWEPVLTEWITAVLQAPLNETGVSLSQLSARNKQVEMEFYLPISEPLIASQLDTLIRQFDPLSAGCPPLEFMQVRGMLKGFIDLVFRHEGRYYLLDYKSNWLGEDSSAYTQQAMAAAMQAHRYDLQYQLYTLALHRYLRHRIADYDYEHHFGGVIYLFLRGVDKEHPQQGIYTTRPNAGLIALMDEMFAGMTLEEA

SMILES: COC(=O)C1=C(C)N(Cc2ccccc2)C(NCc2ccccc2)=N[C@H]1c1cccc(F)c1
- CC50 [1]: 15 µM (active)
- IC50 [2]: 1.25 µM (active)
- CC50 [3]: 14.9 µM (active)
- IC50 [4]: > 96.6 µM (inactive)
- IC50 [5]: > 66.2 µM (inactive)
- IC50 [6]: 23.8 µM (inactive)
- IC50 [7]: 17.9 µM (inactive)
- IC50 [8]: 19.8 µM (active)
- IC50 [9]: > 66.2 µM (inactive)

SMILES: Cc1ccc(-c2nc3ccccc3o2)cc1NC(=O)c1ccc2c(c1)OCO2
- IC50 [10]: 34.1 µM (active)

SMILES: Nc1c2cnnc-2nc(SCC(=O)c2ccc(Br)cc2)n1-c1ccc(Br)cc1
- IC50 [10]: 59.1 µM (active)
- EC50 [11]: > 120 µM (not active)
- EC50 [12]: > 120 µM (not active)
- EC50 [13]: > 120 µM (not active)

SMILES: Cc1ccc(Nc2cc3ccccc3c(=O)[nH]2)cc1
- IC50 [14]: 19.8 µM (active)

SMILES: CC(=O)N(O)CCCCCNC(=O)CCC(=O)N(O)CCCCCNC(=O)CCC(=O)N(O)CCCCCNC(=O)CCC(=O)O
- IC50 [15]: > 118 µM (inactive)
- IC50 [16]: > 118 µM (inactive)

SMILES: Cc1ccc(C2Nc3ccc(C(=O)O)cc3C3C=CCC32)cc1 (stereo not drawn)
- IC50 [14]: > 100 µM (inactive)
